# Measurements from the supplement of paper PMC4862054.
# Legend:
# CAL-148 = assay: normalised viability (% of control), CellTiter-Blue; higher = more viable cells (about 100 = DMSO control); settings: 100 nM; incubation time: 72 h
# Procedure, shortened: (§1)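 Breast cancer cell lines were treated for 72 h in 384-well format and measured by CellTiter-Blue fluorescence at 560/590 nm. Results were normalised per plate to vehicle (100) and a positive kill control (0). The entry is normalised viability at a single listed concentration of the series.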
# BT-549 [1] = assay: as above; settings: 10000 nM; incubation time: 72 h
# Procedure, shortened: as §1
# MDA-MB-468 [2] = assay: as above; settings: 10000 nM; incubation time: 72 h
# Procedure, shortened: as §1
# MDA-MB-436 [3] = assay: as above; settings: 10000 nM; incubation time: 72 h
# Procedure, shortened: as §1
# Hs578T [4] = assay: as above; settings: 10000 nM; incubation time: 72 h
# Procedure, shortened: as §1
# MDA-MB-453 [5] = assay: as above; settings: 100 nM; incubation time: 72 h
# Procedure, shortened: as §1
# HDQ-P1 [6] = assay: as above; settings: 100 nM; incubation time: 72 h
# Procedure, shortened: as §1
# MFM-223 [7] = assay: as above; settings: 10000 nM; incubation time: 72 h
# Procedure, shortened: as §1
# HCC1143 [8] = assay: as above; settings: 10000 nM; incubation time: 72 h
# Procedure, shortened: as §1
# CAL-120 [9] = assay: as above; settings: 10000 nM; incubation time: 72 h
# Procedure, shortened: as §1
# CAL-85-1 = assay: as above; settings: 100 nM; incubation time: 72 h
# Procedure, shortened: as §1
# BT-549 [10] = assay: drug sensitivity score (DSS), CellTiter-Glo (DSS (AUC-based score)); higher = stronger drug effect (viability inhibition or cytotoxicity); extreme values may be limits of the assay; settings: incubation time: 72 h
# Procedure, shortened: (§2)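 The area under the fitted dose-response curve was used to calculate the drug sensitivity score. Cells from breast cancer lines were incubated for 72 h in 384-well plates with compound at 5 concentrations spaced 10-fold over a 10,000-fold range specific to each compound. Plates were read for CellTox Green and then CellTiter-Glo, and normalised to 0.1 % DMSO and a positive kill control.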
# MDA-MB-468 [11] = assay: as above; settings: incubation time: 72 h
# Procedure, shortened: as §2
# HCC1599 = assay: as above; settings: incubation time: 72 h
# Procedure, shortened: as §2
# MDA-MB-436 [12] = assay: as above; settings: incubation time: 72 h
# Procedure, shortened: as §2
# BT-474 = assay: as above; settings: incubation time: 72 h
# Procedure, shortened: as §2
# HCC1937 = assay: as above; settings: incubation time: 72 h
# Procedure, shortened: as §2
# DU-4475 = assay: as above; settings: incubation time: 72 h
# Procedure, shortened: as §2
# MCF-10A = assay: as above; settings: incubation time: 72 h
# Procedure, shortened: as §2
# Hs578T [13] = assay: as above; settings: incubation time: 72 h
# Procedure, shortened: as §2
# MDA-MB-453 [14] = assay: as above; settings: incubation time: 72 h
# Procedure, shortened: as §2
# CAL-51 = assay: as above; settings: incubation time: 72 h
# Procedure, shortened: as §2
# SK-BR-3 = assay: as above; settings: incubation time: 72 h
# Procedure, shortened: as §2
# HDQ-P1 [15] = assay: as above; settings: incubation time: 72 h
# Procedure, shortened: as §2
# MFM-223 [16] = assay: as above; settings: incubation time: 72 h
# Procedure, shortened: as §2
# HCC1143 [17] = assay: as above; settings: incubation time: 72 h
# Procedure, shortened: as §2
# CAL-120 [18] = assay: as above; settings: incubation time: 72 h
# Procedure, shortened: as §2
# MDA-MB-231 = assay: as above; settings: incubation time: 72 h
# Procedure, shortened: as §2
SMILES,normalised viability (CAL-148),normalised viability (BT-549 [1]),normalised viability (MDA-MB-468 [2]),normalised viability (MDA-MB-436 [3]),normalised viability (Hs578T [4]),normalised viability (MDA-MB-453 [5]),normalised viability (HDQ-P1 [6]),normalised viability (MFM-223 [7]),normalised viability (HCC1143 [8]),normalised viability (CAL-120 [9]),normalised viability (CAL-85-1),drug sensitivity score (BT-549 [10]),drug sensitivity score (MDA-MB-468 [11]),drug sensitivity score (HCC1599),drug sensitivity score (MDA-MB-436 [12]),drug sensitivity score (BT-474),drug sensitivity score (HCC1937),drug sensitivity score (DU-4475),drug sensitivity score (MCF-10A),drug sensitivity score (Hs578T [13]),drug sensitivity score (MDA-MB-453 [14]),drug sensitivity score (CAL-51),drug sensitivity score (SK-BR-3),drug sensitivity score (HDQ-P1 [15]),drug sensitivity score (MFM-223 [16]),drug sensitivity score (HCC1143 [17]),drug sensitivity score (CAL-120 [18]),drug sensitivity score (MDA-MB-231)
CCCCCCCCc1ccc(CCC(N)(CO)CO)cc1 [Fingolimod],87%,8.23%,0.62%,4.17%,2.92%,97.7%,111%,9.42%,69.5%,2.23%,96.6%,3.92,5.78,0.954,3.56,6.1,4.54,0,5.32,0,5.2,4.51,5.36,2.05,1.45,0,0,6.21
O=C(O)CCCc1ccc(N(CCCl)CCCl)cc1 [Chlorambucil],103%,74.7%,81.2%,83.3%,87.5%,114%,111%,85.8%,96%,91%,98.6%,0,0,0,0,0,0,0,0,0,0,0,0,0,0,0,0,0
Cn1cncc1[C@@](N)(c1ccc(Cl)cc1)c1ccc2c(c1)c(-c1cccc(Cl)c1)cc(=O)n2C [Tipifarnib],45.6%,30.1%,26.4%,54.9%,39.3%,73.6%,70.7%,29.7%,59.7%,32.7%,76.8%,5.49,7.6,1.29,10.2,4.08,6.28,8.37,2.13,4.5,10.3,11.4,11.9,7.3,6.28,0,3.76,0
CN(C)C[C@@H]1CCn2cc(c3ccccc32)C2=C(C(=O)NC2=O)c2cn(c3ccccc23)CCO1 [Ruboxistaurin],111%,43.7%,8.88%,29.2%,42.9%,93%,83.1%,30.1%,94%,38.9%,115%,6.4,8.68,0,6.47,7,3.65,3.25,3.64,0,6.05,6.02,7.58,4.6,4.27,3,0,6.63
